In patent publication US8853230B2, “Inhibitors of JAK” (Portola Pharmaceuticals, Inc., priority 2009, dated 2014):

Key:
Type in all cases: biochemical
[1] = biological target: T1, TYK2 (Homo sapiens, UniProt P29597); test: Z'-LYTE kinase assay, TYK2 tyrosine phosphorylation activity
T1 construct: 5 μl of catalytic domain recombinant Kinase enzyme+Tyr peptide substrate (Invitrogen, Calif.); purchased Invitrogen
T1 sequence (P29597 897-1176 limits assumed): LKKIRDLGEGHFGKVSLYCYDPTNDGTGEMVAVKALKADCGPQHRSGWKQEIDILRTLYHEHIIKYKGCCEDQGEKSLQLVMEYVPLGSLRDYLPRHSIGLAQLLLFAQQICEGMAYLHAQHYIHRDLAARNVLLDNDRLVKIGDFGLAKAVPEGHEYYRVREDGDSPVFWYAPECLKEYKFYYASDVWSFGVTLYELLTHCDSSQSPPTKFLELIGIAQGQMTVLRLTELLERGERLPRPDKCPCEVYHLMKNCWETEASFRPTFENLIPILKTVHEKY
How it was run: (§1)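 Recombinant catalytic-domain kinase was incubated with coumarin/fluorescein-labelled Tyr6 peptide, ATP and compound (1% DMSO final) for 1 h at room temperature. Protease development then ran 1 h at room temperature. Emission ratio at 445/520 nm (excitation 400 nm) gave percent phosphorylation; IC50s came from 4-parameter logistic fits.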

[2] = biological target: T2, JAK1 (Homo sapiens, UniProt P23458); test: Z'-LYTE kinase assay, JAK1 tyrosine phosphorylation activity; conditions: read-out: JAK 1 IC50
T2 construct: 5 μl of catalytic domain recombinant Kinase enzyme+Tyr peptide substrate (Invitrogen, Calif.); purchased Invitrogen
How it was run: as §1

[3] = biological target: T3, JAK2 (Homo sapiens, UniProt O60674); test: Z'-LYTE kinase assay, JAK2 tyrosine phosphorylation activity
T3 construct: 5 μl of catalytic domain recombinant Kinase enzyme+Tyr peptide substrate (Invitrogen, Calif.); purchased Invitrogen
How it was run: as §1

[4] = biological target: T4, JAK3 (Homo sapiens, UniProt P52333); test: Z'-LYTE kinase assay, JAK3 tyrosine phosphorylation activity
T4 construct: 5 μl of catalytic domain recombinant Kinase enzyme+Tyr peptide substrate (Invitrogen, Calif.); purchased Invitrogen
How it was run: as §1

T4 sequence (P52333 822-1111 limits assumed): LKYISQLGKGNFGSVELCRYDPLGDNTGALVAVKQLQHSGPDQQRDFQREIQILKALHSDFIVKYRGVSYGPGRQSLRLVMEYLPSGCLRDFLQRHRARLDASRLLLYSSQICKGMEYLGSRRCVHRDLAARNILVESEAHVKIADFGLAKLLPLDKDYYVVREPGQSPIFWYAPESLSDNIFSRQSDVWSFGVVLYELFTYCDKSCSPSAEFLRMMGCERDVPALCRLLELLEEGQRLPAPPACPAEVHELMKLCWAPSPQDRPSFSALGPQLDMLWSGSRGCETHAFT
T2 sequence (P23458 875-1153 limits assumed): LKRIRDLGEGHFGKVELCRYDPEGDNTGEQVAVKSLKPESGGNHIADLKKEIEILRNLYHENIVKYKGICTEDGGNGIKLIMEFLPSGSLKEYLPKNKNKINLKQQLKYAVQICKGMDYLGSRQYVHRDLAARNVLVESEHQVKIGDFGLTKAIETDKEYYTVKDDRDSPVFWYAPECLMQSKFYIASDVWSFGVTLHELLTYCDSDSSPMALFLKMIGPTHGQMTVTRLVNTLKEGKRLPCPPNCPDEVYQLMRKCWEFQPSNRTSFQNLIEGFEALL
T3 sequence (O60674 849-1124 limits assumed): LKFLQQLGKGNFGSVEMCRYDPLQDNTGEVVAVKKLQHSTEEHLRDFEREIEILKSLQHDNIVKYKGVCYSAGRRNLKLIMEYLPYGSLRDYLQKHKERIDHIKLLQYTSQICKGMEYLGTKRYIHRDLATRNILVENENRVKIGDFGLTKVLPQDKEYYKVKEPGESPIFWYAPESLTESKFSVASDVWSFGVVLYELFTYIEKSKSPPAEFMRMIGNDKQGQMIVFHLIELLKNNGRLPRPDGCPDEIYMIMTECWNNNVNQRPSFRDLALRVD

IC50 [1] | IC50 [2] | IC50 [3] | IC50 [4] | SMILES
10 to 100 nM | 100 to 1000 nM | 100 to 1000 nM | 10 to 100 nM | CC(=O)Nc1cccc(Nc2cc(NCCC(C)C)c(C(N)=O)cn2)c1 [Example 327, 6-(3-acetamidophenylamino)-4-(isopentylamino)nicotinamide]
10 to 100 nM | 100 to 1000 nM | 100 to 1000 nM | 10 to 100 nM | CC(C)CCNc1cc(Nc2cccc(NC(=O)N3CCCC3)c2)ncc1C(N)=O [Example 328, 4-(isopentylamino)-6-(3-(pyrrolidine-1-carboxamido)phenylamino)nicotinamide]
10 to 100 nM | 10 to 100 nM | 1 to 10 nM | 1 to 10 nM | CC(=O)Nc1cc(Nc2ncc(C(N)=O)c(Nc3cccc4nsnc34)n2)ccc1OCCN1CCCC1 [Example 227, 2-(3-acetamido-4-(2-(pyrrolidin-1-yl)ethoxy)phenylamino)-4-(benzo[c][1,2,5]thiadiazo-4-ylamino)pyrimidine-5-carboxamide]
100 to 1000 nM | 100 to 1000 nM | 100 to 1000 nM | 10 to 100 nM | CC(=O)Nc1cccc(Nc2ncc(C(N)=O)c(N[C@@H](c3ccccc3)C3CC3)n2)c1 [Example 152, (R)-2-(3-acetamidophenylamino)-4-(cyclopropyl(phenyl)methylamino)pyrimidine-5-carboxamide]
10 to 100 nM | 100 to 1000 nM | > 1000 nM | 10 to 100 nM | CC(=O)Nc1cccc(Nc2cc(N[C@H]3CCc4ccccc43)c(C(N)=O)cn2)c1 [Example 335, (S)-6-(3-acetamidophenylamino)-4-(2,3-dihydro-1H-inden-1-ylamino)nicotinamide]
10 to 100 nM | 100 to 1000 nM | 10 to 100 nM | 10 to 100 nM | CC(=O)Nc1cccc(Nc2ncc(C(N)=O)c(NCc3ccccn3)n2)c1 [Example 187, 2-(3-acetamidophenylamino)-4-(pyridin-2-ylmethylamino)pyrimidine-5-carboxamide]
1 to 10 nM | 10 to 100 nM | 10 to 100 nM | 1 to 10 nM | NC(=O)c1cnc(Nc2cccc(NC(=O)[C@@H]3CCCO3)c2)nc1NCc1ccccc1 [Example 206, (S)-4-(benzylamino)-2-(3-(tetrahydrofuran-2-carboxamido)phenylamino)pyrimidine-5-carboxamide]
100 to 1000 nM | 100 to 1000 nM | 100 to 1000 nM | 100 to 1000 nM | NC(=O)c1cnc(Nc2cc(NC(=O)N3CCCC3)ccc2F)nc1NCc1ccccc1 [Example 204, 4-(benzylamino)-2-(2-fluoro-5-(pyrrolidine-1-carboxamido)phenylamino)pyrimidine-5-carboxamide]
10 to 100 nM | 100 to 1000 nM | 10 to 100 nM | 10 to 100 nM | CC(=O)Nc1cccc(Nc2ncc(C(N)=O)c(NCc3ccc4c(c3)OCO4)n2)c1 [Example 99, 2-(3-acetamidophenylamino)-4-(benzo[d][1,3]dioxol-5-ylmethylamino)pyrimidine-5-carboxamide]
> 1000 nM | > 1000 nM | > 1000 nM | > 1000 nM | NC(=O)c1cnc(Nc2cccc(N(C(=O)C3CC3)C3CC3)c2)nc1NCc1ccccc1 [Example 151, 4-(benzylamino)-2-(3-(N-cyclopropylcyclopropanecarboxamido)phenylamino)pyrimidine-5-carboxamide]
10 to 100 nM | 100 to 1000 nM | 100 to 1000 nM | 10 to 100 nM | CC[C@H](C)Nc1nc(Nc2cccc(NC(=O)COC)c2)ncc1C(N)=O [Example 144, (S)-4-(sec-butylamino)-2-(3-(2-methoxyacetamido)phenylamino)pyrimidine-5-carboxamide]
10 to 100 nM | 100 to 1000 nM | 10 to 100 nM | 1 to 10 nM | COC[C@@H]1CCCN1C(=O)Nc1cccc(Nc2ncc(C(N)=O)c(N[C@H](C)c3ccccc3)n2)c1 [Example 138, 2-(3-((S)-2-(methoxymethyl)pyrrolidine-1-carboxamido)phenylamino)-4-((R)-1-phenylethylamino)pyrimidine-5-carboxamide]
100 to 1000 nM | > 1000 nM | 10 to 100 nM | 10 to 100 nM | CC(=O)Nc1cc(Nc2ncc(C(N)=O)c(Nc3cccc4nn(C)cc34)n2)ccc1OCCN(C)C [Example 229, 2-(3-acetamido-4-(2-(dimethylamino)ethoxy)phenylamino)-4-(2-methyl-2H-indazol-4-ylamino)pyrimidine-5-carboxamide]
10 to 100 nM | 100 to 1000 nM | 10 to 100 nM | 1 to 10 nM | CC(=O)Nc1cccc(Nc2ncc(C(N)=O)c(NCc3cc(F)ccc3F)n2)c1 [Example 102, 2-(3-acetamidophenylamino)-4-(2,5-difluorobenzylamino)pyrimidine-5-carboxamide]
10 to 100 nM | 10 to 100 nM | 100 to 1000 nM | 10 to 100 nM | NC(=O)c1cnc(Nc2ccc(Cl)c(NC(=O)N3CCCC3)c2)nc1NC1CCCC1 [Example 167, 2-(4-chloro-3-(pyrrolidine-1-carboxamido)phenylamino)-4-(cyclopentylamino)pyrimidine-5-carboxamide]
100 to 1000 nM | > 1000 nM | > 1000 nM | 100 to 1000 nM | CC(=O)Nc1cccc(Nc2cc(NCCc3ccccc3)c(C(N)=O)cn2)c1 [Example 338, 6-(3-acetamidophenylamino)-4-(phenethylamino)nicotinamide]
1 to 10 nM | 1 to 10 nM | 1 to 10 nM | 1 to 10 nM | CC(=O)Nc1cccc(Nc2ncc(C(N)=O)c(Nc3cccc4c3ccn4C)n2)c1 [Example 184, 2-(3-acetamidophenylamino)-4-(1-methyl-1H-indol-4-ylamino)pyrimidine-5-carboxamide]
10 to 100 nM | 10 to 100 nM | 10 to 100 nM | 10 to 100 nM | COCC(=O)N(C)c1cccc(Nc2ncc(C(N)=O)c(NCC3CC3)n2)c1 [Example 125, 4-(cyclopropylmethylamino)-2-(3-(2-methoxy-N-methylacetamido)phenylamino)pyrimidine-5-carboxamide]
> 1000 nM | > 1000 nM | 100 to 1000 nM | 100 to 1000 nM | CC(=O)Nc1cccc(Nc2cc(NCc3ccc(F)cc3)c(C(N)=O)cn2)c1 [Example 332, 6-(3-acetamidophenylamino)-4-(4-fluorobenzylamino)nicotinamide]
10 to 100 nM | 10 to 100 nM | 10 to 100 nM | 1 to 10 nM | CC(=O)Nc1cc(Nc2ncc(C(N)=O)c(NCc3ccccc3)n2)ccc1Cl [Example 2, 2-(3-acetamido-4-chlorophenylamino)-4-(benzylamino)pyrimidine-5-carboxamide]
10 to 100 nM | 100 to 1000 nM | 100 to 1000 nM | 100 to 1000 nM | CC(=O)Nc1cccc(Nc2cc(NC3CCCC3)c(C(N)=O)cn2)c1 [Example 330, 6-(3-acetamidophenylamino)-4-(cyclopentylamino)nicotinamide]
10 to 100 nM | 100 to 1000 nM | 10 to 100 nM | 10 to 100 nM | COCC(=O)Nc1cccc(Nc2ncc(C(N)=O)c(NCc3ccc(F)cc3)n2)c1 [Example 104, 4-(4-fluorobenzylamino)-2-(3-(2-methoxyacetamido)phenylamino)pyrimidine-5-carboxamide]
10 to 100 nM | 100 to 1000 nM | 10 to 100 nM | 1 to 10 nM | NC(=O)c1cnc(Nc2ccc(N3CCCC3)c(NC(=O)N3CCCC3)c2)nc1NCc1ccccc1 [Example 159, 4-(benzylamino)-2-(4-(pyrrolidin-1-yl)-3-(pyrrolidine-1-carboxamido)phenylamino)pyrimidine-5-carboxamide]
10 to 100 nM | 10 to 100 nM | 10 to 100 nM | 10 to 100 nM | CC(=O)Nc1cccc(Nc2ncc(C(N)=O)c(N[C@H]3CCc4ccccc43)n2)c1 [Example 96, (S)-2-(3-acetamidophenylamino)-4-(2,3-dihydro-1H-inden-1-ylamino)pyrimidine-5-carboxamide]
10 to 100 nM | 100 to 1000 nM | 100 to 1000 nM | 10 to 100 nM | CC[C@H](C)Nc1nc(Nc2ccc(Cl)c(NC(=O)NC)c2)ncc1C(N)=O [Example 175, (S)-4-(sec-butylamino)-2-(4-chloro-3-(3-methylureido)phenylamino)pyrimidine-5-carboxamide]
> 1000 nM | > 1000 nM | > 1000 nM | 100 to 1000 nM | CC(=O)Nc1cccc(Nc2cc(NCc3ccc4c(c3)OCO4)c(C(N)=O)cn2)c1 [Example 334, 6-(3-acetamidophenylamino)-4-(benzo[d][1,3]dioxol-5-ylmethylamino)nicotinamide]
10 to 100 nM | > 1000 nM | 10 to 100 nM | 10 to 100 nM | CC(=O)Nc1cccc(Nc2ncc(C(N)=O)c(Nc3ccc(N4CCOCC4)c(F)c3)n2)c1 [Example 198]
10 to 100 nM | > 1000 nM | 10 to 100 nM | 1 to 10 nM | CNC(=O)Nc1cc(Nc2ncc(C(N)=O)c(NCc3ccccc3)n2)ccc1F [Example 158, 4-(benzylamino)-2-(4-fluoro-3-(3-methylureido)phenylamino)pyrimidine-5-carboxamide]
